Source: PubChem BioAssay AID1259411 (Chemical Carcinogenesis Research Information System (CCRIS), 2018)
Calls of active or inactive are those of the source. No rule for the calls is given here.

System: rodent carcinogenicity bioassays, tumor incidence
Assay: CCRIS carcinogenicity studies
Procedure, shortened: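 NCI-built, expert-reviewed records of carcinogenicity and related test outcomes (mutagenicity, tumor promotion/inhibition) compiled from published and report sources, historical span 1985-2011, not updated.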

`c1ccc(N=Nc2ccccc2)cc1` was tested, and the carcinogen call (Species: MOUSE, Strain/Sex: B6C3F1/FEMALE, Route: ORAL, Dose: 0, 208, 545 PPM IN DIET, TWA, Dose: 0, 208, 545 PPM IN DIET, TWA) was “inactive; negative”, the carcinogen call (Species: MOUSE, Strain/Sex: B6C3F1/MALE, Route: ORAL, Dose: 0, 200, 400 PPM IN DIET, Dose: 0, 200, 400 PPM IN DIET) was “inactive; negative” and the carcinogen call (Species: RAT, Strain/Sex: F344/FEMALE, Route: ORAL, Dose: 0, 200, 400 PPM IN DIET FOR 106 WK (STUDY DURATION: 106 WK), Dose: 0, 200, 400 PPM IN DIET FOR 106 WK (STUDY DURATION: 106 WK), Tumor Site: Type of Lesion: SPLEEN OR PERITONEUM: SARCOMA) was “active; positive”. The carcinogen call (Species: RAT, Strain/Sex: F344/FEMALE, Route: ORAL, Dose: 0, 200, 400 PPM IN DIET, Dose: 0, 200, 400 PPM IN DIET, Tumor Site: Type of Lesion: SPLEEN: FIBROSARCOMA, OSTEOSARCOMA, PERITONEAL CAVITY: SARCOMA) was “active; positive”, the carcinogen call (Species: RAT, Strain/Sex: F344/MALE, Route: ORAL, Dose: 0, 200, 400 PPM IN DIET FOR 106 WK (STUDY DURATION: 106 WK), Dose: 0, 200, 400 PPM IN DIET FOR 106 WK (STUDY DURATION: 106 WK), Tumor Site: Type of Lesion: SPLEEN OR PERITONEUM: SARCOMA) was “active; positive” and the carcinogen call (Species: RAT, Strain/Sex: F344/MALE, Route: ORAL, Dose: 0, 200, 400 PPM IN DIET, Dose: 0, 200, 400 PPM IN DIET, Tumor Site: Type of Lesion: SPLEEN: FIBROSARCOMA, PERITONEAL CAVITY: SARCOMA) was “active; positive”.

With `CCCCCl` the carcinogen call (Species: MOUSE, Strain/Sex: B6C3F1/FEMALE, Route: GAVAGE, Dose: 0, 250, 500 MG/KG IN CORN OIL 5 D/WK FOR 103 WK, Dose: 0, 250, 500 MG/KG IN CORN OIL 5 D/WK FOR 103 WK) was “inactive; negative”, the carcinogen call (Species: MOUSE, Strain/Sex: B6C3F1/MALE, Route: GAVAGE, Dose: 0, 500, 1000 MG/KG IN CORN OIL 5 D/WK FOR 103 WK, Dose: 0, 500, 1000 MG/KG IN CORN OIL 5 D/WK FOR 103 WK) was “inactive; negative” and the carcinogen call (Species: RAT, Strain/Sex: F344/FEMALE, Route: GAVAGE, Dose: 0, 60, 120 MG/KG IN CORN OIL 5 D/WK FOR 103 WK, Dose: 0, 60, 120 MG/KG IN CORN OIL 5 D/WK FOR 103 WK) was “inactive; negative”. The carcinogen call (Species: RAT, Strain/Sex: F344/MALE, Route: GAVAGE, Dose: 0, 60, 120 MG/KG IN CORN OIL 5 D/WK FOR 103 WK, Dose: 0, 60, 120 MG/KG IN CORN OIL 5 D/WK FOR 103 WK) was “inactive; negative”.

For `CC(O)CN(N=O)C(=O)NCCCl` (stereo not drawn), the carcinogen call (Species: RAT, Strain/Sex: F344/FEMALE, Route: INTRAVESICULAR, Dose: 0, 4.6 MG 2/WK FOR 30 WK (STUDY DURATION: LIFETIME), Tumor Site: Type of Lesion: BLADDER: TUMOR) was “active; positive”, the carcinogen call (Species: RAT, Strain/Sex: F344/FEMALE, Route: ORAL, Dose: 0, 46 MG/L IN DRINKING WATER 5 D/WK FOR 30 WK (STUDY DURATION: LIFETIME), Tumor Site: Type of Lesion: BLADDER: TUMOR, THYROID: FOLLICULAR TUMOR) was “active; positive” and the carcinogen call (Species: RAT, Strain/Sex: F344/MALE, Route: ORAL, Dose: 0, 46 MG/L IN DRINKING WATER 5 D/WK FOR 30 WK (STUDY DURATION: LIFETIME)) was “inactive; negative”.

`Clc1ccc(-c2cc(Cl)c(Cl)c(Cl)c2)cc1Cl` was tested, and the carcinogen call (Species: RAT, Strain/Sex: SPRAGUE-DAWLEY/FEMALE, Route: GAVAGE, Dose: 0, 30, 100, 175, 300, 550, 1000 NG/KG BW 5 D/WK FOR 2 YRS, Dose: 0, 30, 100, 175, 300, 550, 1000 NG/KG BW 5 D/WK FOR 2 YRS, Tumor Site: Type of Lesion: LIVER: CHOLANGIOCARCINOMA, HEPATOCELLULAR ADENOMA OR CARCINOMA) was “active; positive”, the carcinogen call (Species: RAT, Strain/Sex: SPRAGUE-DAWLEY/FEMALE, Route: GAVAGE, Dose: 0, 30, 100, 175, 300, 550, 1000 NG/KG BW 5 D/WK FOR 2 YRS, Dose: 0, 30, 100, 175, 300, 550, 1000 NG/KG BW 5 D/WK FOR 2 YRS, Tumor Site: Type of Lesion: LUNG: CYSTIC KERATINIZING EPITHELIOMA) was “active; positive” and the carcinogen call (Species: RAT, Strain/Sex: SPRAGUE-DAWLEY/FEMALE, Route: GAVAGE, Dose: 0, 30, 100, 175, 300, 550, 1000 NG/KG BW 5 D/WK FOR 2 YRS, Dose: 0, 30, 100, 175, 300, 550, 1000 NG/KG BW 5 D/WK FOR 2 YRS, Tumor Site: Type of Lesion: ORAL CAVITY: SQUAMOUS CELL CARCINOMA) was “active; positive”. For the same compound, the carcinogen call (Species: RAT, Strain/Sex: SPRAGUE-DAWLEY/FEMALE, Route: GAVAGE, Dose: 1000 NG/KG BW 5 D/WK FOR 30 WKS (STUDY DURATION: 2 YRS)) was “inactive; negative” and the carcinogen call (Species: RAT, Strain/Sex: SPRAGUE-DAWLEY/FEMALE, Route: ORAL, Dose: 0, 30, 100, 175, 300, 550, 1000 NG/KG/D (STUDY DURATION: 2 YRS), Dose: 0, 30, 100, 175, 300, 550, 1000 NG/KG/D (STUDY DURATION: 2 YRS), Tumor Site: Type of Lesion: ORAL MUCOSA: SQUAMOUS CELL CARCINOMA) was “active; positive; highest dose only”.

For `CN(C)CCOC(c1ccccc1)c1ccccc1`, the carcinogen call (Species: MOUSE, Strain/Sex: B6C3F1/FEMALE, Route: ORAL, Dose: 0, 156, 313 PPM IN FEED FOR 103 WK (STUDY DURATION: 106 WK), Dose: 0, 156, 313 PPM IN FEED FOR 103 WK (STUDY DURATION: 106 WK)) was “inactive; negative”, the carcinogen call (Species: MOUSE, Strain/Sex: B6C3F1/MALE, Route: ORAL, Dose: 0, 156, 313 PPM IN FEED FOR 105 WK (STUDY DURATION: 106 WK), Dose: 0, 156, 313 PPM IN FEED FOR 105 WK (STUDY DURATION: 106 WK)) was “inactive; negative” and the carcinogen call (Species: RAT, Strain/Sex: F344/FEMALE, Route: ORAL, Dose: 0, 156, 313 PPM IN FEED FOR 103 WK (STUDY DURATION: 106 WK), Dose: 0, 156, 313 PPM IN FEED FOR 103 WK (STUDY DURATION: 106 WK), Tumor Site: Type of Lesion: PITUITARY GLAND: ADENOMA) was “equivocal”. For the same compound, the carcinogen call (Species: RAT, Strain/Sex: F344/FEMALE, Route: ORAL, Dose: 0, 2000 PPM IN DIET FOR 106 WK (STUDY DURATION: 130 WK)) was “inactive; negative”, the carcinogen call (Species: RAT, Strain/Sex: F344/MALE, Route: ORAL, Dose: 0, 313, 625 PPM IN FEED FOR 103 WK (STUDY DURATION: 106 WK), Dose: 0, 313, 625 PPM IN FEED FOR 103 WK (STUDY DURATION: 106 WK), Tumor Site: Type of Lesion: BRAIN: ASTROCYTOMA OR GLIOMA, LUNG: ALVEOLAR/BRONCHIOLAR ADENOMA OR CARCINOMA) was “equivocal” and the carcinogen call (Species: RAT, Strain/Sex: F344/MALE, Route: ORAL, Dose: 0, 2000 PPM IN DIET FOR 106 WK (STUDY DURATION: 130 WK)) was “inactive; negative”.

With `CC1(C)C(C=C(Cl)Cl)C1C(=O)OC(C#N)c1ccc(F)c(Oc2ccccc2)c1` (stereo not drawn) the carcinogen call (Species: Mouse, Strain/Sex: CD-1/Female (56/dose), Route: Oral, Dose: 0, 200, 750, 1,600 ppm (0; 38.4; 140/6; 309.7 mg/kg/day) of 94-95% pure cyfluthrin in feed for 18 mo, Dose: 0, 200, 750, 1,600 ppm (0; 38.4; 140/6; 309.7 mg/kg/day) of 94-95% pure cyfluthrin in feed for 18 mo) was “inactive; negative”, the carcinogen call (Species: Mouse, Strain/Sex: CD-1/Male (56/dose), Route: Oral, Dose: 0, 200, 750, 1,400 ppm (0; 31.9; 114.8; 232.7 mg/kg/day) of 94-95% pure cyfluthrin in feed for 18 mo, Dose: 0, 200, 750, 1,400 ppm (0; 31.9; 114.8; 232.7 mg/kg/day) of 94-95% pure cyfluthrin in feed for 18 mo) was “inactive; negative” and the carcinogen call (Species: Rat, Strain/Sex: Fisher 344/Female (55/dose), Route: Oral, Dose: 0, 50, 225, 450 ppm (3.3; 14.4; 28.3 mg/kg/day) of 93.9-95.1% pure cyfluthrin in feed for 2 yr, Dose: 0, 50, 225, 450 ppm (3.3; 14.4; 28.3 mg/kg/day) of 93.9-95.1% pure cyfluthrin in feed for 2 yr) was “inactive; negative”. For the same compound, the carcinogen call (Species: Rat, Strain/Sex: Fisher 344/Male (55/dose), Route: Oral, Dose: 0, 50, 225, 450 ppm (2.6; 11.6; 22.8 mg/kg/day) of 93.9-95.1% pure cyfluthrin in feed for 2 yr, Dose: 0, 50, 225, 450 ppm (2.6; 11.6; 22.8 mg/kg/day) of 93.9-95.1% pure cyfluthrin in feed for 2 yr) was “inactive; negative”.
